Reference: patent publication US10294228B2, “Breathing control modulating compounds, and methods of making and using same” (NEURAD LTD., priority 2015, dated 2019)
Entries after “also recorded” stand apart in the source; their conditions may differ. Counter-ions that a name gives are not always drawn.

What was measured:
Type in all cases: in vivo, rat
[1] = test system: morphine-tolerant rats (CSA model); assay: Apnea hypopnea index and ventilation during sleep in rats receiving chronic morphine (CSA model); settings: 10 mg/kg PO, FIG. 15
Method: Central sleep apnea (CSA) and hypopnea are especially prevalent in people on chronic opioid therapy. Accordingly, a novel rodent model of chronic opioid-induced sleep disordered breathing that mimics many features of the condition in people was developed.
Morphine was administered chronically to rats in their drinking water at a dose and duration that elicited morphine tolerance. Morphine sulfate was added to the drinking water of individually housed rats beginning at 0.1 mg/ml morphine and increasing the concentration in increments so that a final concentration of 0.6 mg/ml was achieved within 2 weeks of beginning morphine exposure. During the first three weeks after starting morphine administration, rats were acclimated to whole body plethysmography chambers.
Respiratory rate (fR), tidal volume (VT), minute volume (VE), and CSA and hypopnea frequency and length (i.e., duration of each apnea) were measured continuously while animals were unrestrained in whole-body plethysmography chambers. Animals breathed room air for the duration of the study, except where indicated for the hyperoxia validation study. […]
A respiratory waveform was generated from the expansion and contraction of the air that was exchanged between the animal and the chamber. […] The airflow signal was amplified and continuously recorded using PowerLab and LabChart 7.0. […]

[2] = test system: rats with evoked obstructions; assay: Evoked obstructive apnea model
Method: Two rodent models of obstructive apnea were used: one that modeled spontaneous obstructions (spontaneous obstructive apnea model) which become progressively worse over time, and another (evoked obstructive apnea model) where the investigator retained control over the variables that define OSA severity, such as apnea frequency (f OA) and apnea duration (OA t).
All animal experiments were performed according to protocols approved by the Institutional Animal Care and Use Committee (IACUC) at Galleon Pharmaceuticals, Inc. All experimental procedures were performed under general anesthesia. All experiments were non-survival procedures and animals were euthanized at the conclusion of the experiment prior to the animal recovering from anesthesia. Two rodent models of obstructive apnea were used, one that modeled spontaneous obstructions that become progressively worse over time (Spontaneous Obstructive Apnea Model), and another where the investigator retained control over the parameters that defined OSA severity, such as f OA, and OA t, and by controlling these directly also controlling of the magnitude of oxy-hemoglobin desaturation (Evoked Obstructive Apnea Model).

rats = assay: Sleep quantity, architecture and quality by EEG/EMG telemetry; settings: 10 mg/kg PO
Method: All surgical and plethysmographic studies were approved by the IACUC committee of Galleon Pharmaceuticals. The study used rats implanted with dual biopotential electrodes that permitted continuous and simultaneous telemetric recordings of electroencephalogram (EEG) and electromyogram (EMG) waveforms. Three treatment conditions were assessed for their effects on sleep quantity, architecture, and quality: baseline (drug-naïve), (31a) (10 mg/kg PO) and vehicle (equal volume PO). Baseline and (31a) treatment study days were randomized. However, vehicle alone was assessed after each rat had completed drug nave and compound (31a) evaluations.
Standard aseptic technique was used for all surgical procedures. […]
Rats with implanted telemeters were allowed to remain in their home cages during data collection. […] EEG and EMG waveforms were recorded between 8 am and 3 pm each study day. […] For each rat, the three telemetry signals (EEG, EMG, and temperature) were routed from the receiver to the PowerLab and recorded using LabChart. […]
The principal aspects of these analyses were to quantify the magnitude of the EMG signal (i.e., the animals activity level) and the relative densities of EEG delta waves (0.5 to 4 Hz; predominant in NREM sleep) and EEG theta waves (6 to 10 Hz; predominant in REM sleep) during each 4-second epoch. […]

CCCNc1nc(NC)nc2c(NCC(C)(C)O)nc(NC)nc12 [Compound 31a, 1-(2,6-Bis-methylamino-8-propylamino-pyrimido[5,4-d]pyrimidin-4-ylamino)-2-methyl-propan-2-ol Hydrochloride]
apnea-hypopnea index [1]: reduces | minute volume [1]: without significantly increasing | airway (genioglossus, or GG) responses to evoked obstructions ([2]; rats, IV infusion MD 0.008 mg/kg/min 15 min then 0.002 mg/kg/min 45 min, HD 0.024 then 0.006 mg/kg/min, FIG. 21A): increases | diaphragm (DIA) responses to evoked obstructions ([2]; same rats and infusions as FIG. 21A, FIG. 21B): insignificant increases | effects on sleep quantity, architecture, or quality (rats): not associated with any statistically significant effects | effects on sleep architecture (rats; compared to baseline (drug-naive), FIG. 24, Hydrochloride, 10 mg/kg): No significant differences; also recorded: does not produce effects
